{
  "source": "patent US20050112573A1",
  "about": "“Method of detecting toxic substance” (priority 2001, published 2005)",
  "tested_on": "yeast genes (level of expressed mRNA)",
  "assay": "DNA chip analysis of expressed mRNA of yeast genes after 2 h culture with a toxic chemical substance",
  "format": "cell-based, Saccharomyces cerevisiae S288C",
  "procedure": "Yeast (Saccharomyces cerevtisiae S288C (α SUC2mal mel gap2 CUP1)) were cultured at 25° C. on YPD medium (yeast extract 1%, polypepton 2%, glucose 2%). One of toxic chemical substances was added to the cell at logarithmic growth phase, and the cell was further cultured for two hours. Cell was cultured without any chemical substance in the same condition, and was used as control. Concentrations of the chemical substances were defined to inhibit the growth of the yeast but not lead to death.\nAfter the completion of cultivation, the culture was centrifuged to collect the cells. To the cells, sodium acetate buffer (50 mM sodium acetate, 10 mM EDTA, 1% SDS) was added, and the mixture was shaken at 65° C. for five minutes, followed by returning to room temperature, and obtaining the supernatant, which procedure was repeated two times. To the supernatant, ½ amount of a solution of phenol/chloroform was added, and the mixture was centrifuged to give a supernatant, which was added with an equal amount of chloroform, and the mixture was centrifuged to give a supernatant. To the supernatant, an equal amount of isopropanol containing 0.3 M sodium acetate was added, and the mixture was allowed to stand at room temperature for 30 minutes, after which the mixture was centrifuged to give a sediment of the whole RNAs. Seventy % ethanol was added to the sediment, and the mixture was again centrifuged to give a sediment, which was then dried and dissolved in water. mRNA was isolated from the whole RNAs as followings. In view of the fact that a poly A chain is attached to the 3′ terminus of mRNA, a polynucleotide having a poly T structure which was immobilized on the surface of latex beads was used to trap the mRNA, and then the mRNA was washed and eluted with spine column (Oligotex-dT30<Super>mRNA Purification Kit, Takara). Reverse transcription of the mRNA was conducted with a reverse transcriptase (Super Script II Reverse Transcriptase; catalogue No. 18064-014, GibcoBRL) using fluorescence-labeled nucleotides to give cDNAs that were introduced with Cy3-dUTP or Cy5-dUTP during the reverse transcription.\nThe labeled cDNAs were dissolved in TE buffer (10 mM Tris-HCl/1 mM EDTA, pH8.0), and the solution was dropped on the DNA chip containing the whole genes of yeast (DNA Chip Research Inc. Japan) so that the cDNAs were hybridized on the DNA chip at 65° C. for over 12 hours. The fluoresces intensity of the DNA chip was read with a scanner, and the ratio relative to the fluorescence intensity resulting from the absence of chemical substance was estimated as the following, which is shown in Tables 1 to 9: [formula]\nIn the Tables, “Intensity” indicated in the rightmost column is a value of the level of expressed mRNA of each gene in control cells as divided by the average level of the expressions of the whole genes.",
  "data": [
    {"compound": "CCCCCCCCCCCCOS(=O)(=O)[O-].[Na+]", "note": "[(18), sodium lauryl sulfate]", "values": [
      {"measurement": "The level of expressed mRNA in the presence of chemical substance/absence: YDR133C", "setting": "gene YDR133C", "value": 0.9},
      {"measurement": "The level of expressed mRNA in the presence of chemical substance/absence: YDR140W", "setting": "gene YDR140W", "value": 1.3},
      {"measurement": "The level of expressed mRNA in the presence of chemical substance/absence: YDR221W", "setting": "gene YDR221W", "value": 1.0},
      {"measurement": "The level of expressed mRNA in the presence of chemical substance/absence: YDR250C", "setting": "gene YDR250C", "value": 0.9},
      {"measurement": "The level of expressed mRNA in the presence of chemical substance/absence: YDR271C", "setting": "gene YDR271C", "value": 0.9},
      {"measurement": "The level of expressed mRNA in the presence of chemical substance/absence: YDR278C", "setting": "gene YDR278C", "value": 0.8},
      {"measurement": "The level of expressed mRNA in the presence of chemical substance/absence: YDR281C", "setting": "gene YDR281C", "value": 1.2},
      {"measurement": "The level of expressed mRNA in the presence of chemical substance/absence: YDR316W", "setting": "gene YDR316W", "value": 0.5},
      {"measurement": "The level of expressed mRNA in the presence of chemical substance/absence: YDR338C", "setting": "gene YDR338C", "value": 1.0},
      {"measurement": "The level of expressed mRNA in the presence of chemical substance/absence: YDR366C", "setting": "gene YDR366C", "value": 0.9},
      {"measurement": "level of expressed mRNA in the presence of chemical substance/in its absence", "setting": "gene YDR380W", "value": 0.8},
      {"measurement": "level of expressed mRNA in the presence of chemical substance/in its absence", "setting": "gene YDR410C", "value": 1.0},
      {"measurement": "The level of expressed mRNA in the presence of chemical substance/absence: YDR421W", "setting": "gene YDR421W", "value": 0.8},
      {"measurement": "The level of expressed mRNA in the presence of chemical substance/absence: YDR425W", "setting": "gene YDR425W", "value": 1.2},
      {"measurement": "The level of expressed mRNA in the presence of chemical substance/absence: YDR485C", "setting": "gene YDR485C", "value": 1.0},
      {"measurement": "level of expressed mRNA in the presence of chemical substance/in its absence", "setting": "gene YDR487C", "value": 1.9},
      {"measurement": "level of expressed mRNA in the presence of chemical substance/in its absence", "setting": "gene YDR502C", "value": 0.9},
      {"measurement": "The level of expressed mRNA in the presence of chemical substance/absence: YDR504C", "setting": "gene YDR504C", "value": 1.2},
      {"measurement": "level of expressed mRNA in the presence of chemical substance/in its absence", "setting": "gene YEL011W", "value": 2.5},
      {"measurement": "level of expressed mRNA in the presence of chemical substance/in its absence", "setting": "gene YEL020C", "value": 1.3},
      {"measurement": "The level of expressed mRNA in the presence of chemical substance/absence: YEL044W", "setting": "gene YEL044W", "value": 1.0},
      {"measurement": "level of expressed mRNA in the presence of chemical substance/in its absence", "setting": "gene YER026C", "value": 3.2},
      {"measurement": "level of expressed mRNA in the presence of chemical substance/in its absence", "setting": "gene YER069W", "value": 0.9},
      {"measurement": "The level of expressed mRNA in the presence of chemical substance/absence: YER092W", "setting": "gene YER092W", "value": 1.7},
      {"measurement": "The level of expressed mRNA in the presence of chemical substance/absence: YER182W", "setting": "gene YER182W", "value": 1.2},
      {"measurement": "The level of expressed mRNA in the presence of chemical substance/absence: YFL042C", "setting": "gene YFL042C", "value": 1.2},
      {"measurement": "level of expressed mRNA in the presence of chemical substance/in its absence", "setting": "gene YFR015C", "value": 1.2},
      {"measurement": "The level of expressed mRNA in the presence of chemical substance/absence: YFR026C", "setting": "gene YFR026C", "value": 1.1},
      {"measurement": "The level of expressed mRNA in the presence of chemical substance/absence: YFR056C", "setting": "gene YFR056C", "value": 0.8},
      {"measurement": "level of expressed mRNA in the presence of chemical substance/in its absence", "setting": "gene YGL001C", "value": 2.1},
      {"measurement": "level of expressed mRNA in the presence of chemical substance/in its absence", "setting": "gene YGL022W", "value": 0.7},
      {"measurement": "level of expressed mRNA in the presence of chemical substance/in its absence", "setting": "gene YGL039W", "value": 1.0},
      {"measurement": "The level of expressed mRNA in the presence of chemical substance/absence: YGL041C", "setting": "gene YGL041C", "value": 1.1},
      {"measurement": "The level of expressed mRNA in the presence of chemical substance/absence: YGL045W", "setting": "gene YGL045W", "value": 1.2},
      {"measurement": "The level of expressed mRNA in the presence of chemical substance/absence: YGL057C", "setting": "gene YGL057C", "value": 1.1},
      {"measurement": "The level of expressed mRNA in the presence of chemical substance/absence: YGL088W", "setting": "gene YGL088W", "value": 0.7},
      {"measurement": "level of expressed mRNA in the presence of chemical substance/in its absence", "setting": "gene YGL104C", "value": 1.3},
      {"measurement": "level of expressed mRNA in the presence of chemical substance/in its absence", "setting": "gene YGL126W", "value": 0.9},
      {"measurement": "level of expressed mRNA in the presence of chemical substance/in its absence", "setting": "gene YGL134W", "value": 1.3},
      {"measurement": "level of expressed mRNA in the presence of chemical substance/in its absence", "setting": "gene YGL154C", "value": 1.1},
      {"measurement": "The level of expressed mRNA in the presence of chemical substance/absence: YGL183C", "setting": "gene YGL183C", "value": 1.0},
      {"measurement": "level of expressed mRNA in the presence of chemical substance/in its absence", "setting": "gene YGL209W", "value": 1.5},
      {"measurement": "The level of expressed mRNA in the presence of chemical substance/absence: YGL223C", "setting": "gene YGL223C", "value": 1.0},
      {"measurement": "level of expressed mRNA in the presence of chemical substance/in its absence", "setting": "gene YGL253W", "value": 0.8},
      {"measurement": "The level of expressed mRNA in the presence of chemical substance/absence: YGR038W", "setting": "gene YGR038W", "value": 1.1},
      {"measurement": "level of expressed mRNA in the presence of chemical substance/in its absence", "setting": "gene YGR060W", "value": 1.6},
      {"measurement": "The level of expressed mRNA in the presence of chemical substance/absence: YGR139W", "setting": "gene YGR139W", "value": 0.8},
      {"measurement": "The level of expressed mRNA in the presence of chemical substance/absence: YGR156W", "setting": "gene YGR156W", "value": 0.8},
      {"measurement": "The level of expressed mRNA in the presence of chemical substance/absence: YGR198W", "setting": "gene YGR198W", "value": 1.0},
      {"measurement": "The level of expressed mRNA in the presence of chemical substance/absence: YGR210C", "setting": "gene YGR210C", "value": 0.7},
      {"measurement": "The level of expressed mRNA in the presence of chemical substance/absence: YGR211W", "setting": "gene YGR211W", "value": 0.5},
      {"measurement": "The level of expressed mRNA in the presence of chemical substance/absence: YGR237C", "setting": "gene YGR237C", "value": 1.0},
      {"measurement": "The level of expressed mRNA in the presence of chemical substance/absence: YGR243W", "setting": "gene YGR243W", "value": 4.4},
      {"measurement": "The level of expressed mRNA in the presence of chemical substance/absence: YGR250C", "setting": "gene YGR250C", "value": 2.1},
      {"measurement": "The level of expressed mRNA in the presence of chemical substance/absence: YGR266W", "setting": "gene YGR266W", "value": 1.0},
      {"measurement": "The level of expressed mRNA in the presence of chemical substance/absence: YGR277C", "setting": "gene YGR277C", "value": 1.1},
      {"measurement": "level of expressed mRNA in the presence of chemical substance/in its absence", "setting": "gene YGR282C", "value": 1.5}
    ]}
  ]
}
